# From publication PMC11487760, “Cross-Species Applications of Peptide Substrate Reporters to Quantitative Measurements of Kinase Activity” (ACS Measurement Science Au, 2024)
# Non-standard residues stand in square brackets, D forms with d. Residues, ends and D or L forms follow the SMILES beside them. *: point of attachment. 5FAM = O=C1OC2(c3ccc(O)cc3Oc3cc(O)ccc32)c2ccc(C(=O)*)cc21; 6FAM = O=C1OC2(c3ccc(O)cc3Oc3cc(O)ccc32)c2cc(C(=O)*)ccc21; NMeR = CN[C@@H](CCCNC(=N)N)C(=O)O; NMeA = CN[C@@H](C)C(=O)O
# Key:
# [1] = Degradation assay in freeze-thaw lysates, D. discoideum; type: in vitro ADME; conditions: 10 μM reporter, 25 °C, CE-LIF
# Experimental: (§1) Degradation assays were conducted as described previously.[38] Briefly, aliquots of vegetative cells were washed twice, resuspended in ice-cold phosphate buffered saline at a density of 2 × 10^8 cells/mL and lysed by three freeze–thaw cycles using liquid nitrogen. The resulting lysate was clarified by 5 min centrifugation at 15,000 × g, and the supernatant was stored at −80 °C. The total protein concentration was determined using a fluorescamine assay with a bovine serum albumin (BSA) calibration curve.[39] Briefly, three parts diluted lysate (or BSA standard) in 30 mM borate buffer (pH 9) and one part 3 mg/mL fluorescamine in acetone were incubated for 5 min in the dark at room temperature. The fluorescence at 475 nm was then measured using 390 nm excitation. Based on this assay, the lysate was diluted to a concentration of 3 mg/mL in phosphate buffered saline. The degradation reaction was run at 25 °C and initiated by addition of 10 μM reporter to the diluted lysate. At fixed time points, aliquots were removed, and the reaction was stopped by incubation for 4 min at 95 °C.
# (§2) To study degradation kinetics, we fit the data for each full-length peptide to a first-order reaction model and determined the half-life for each peptide for three biological replicates (Figure 5b-d, Table 3). Degradation rates and half-lives varied widely between organisms and peptides; however, some general trends were apparent. For all peptides, degradation was much faster in T. thermophila than in D. discoideum. T. thermophila is known to produce and secrete cysteine proteases and is a large ([…]), fast-growing cell. […] Further characterization of protease expression in these strains may be helpful identifying the enzyme(s) primarily responsible for degradation of these reporters.
# [2] = Degradation assay in freeze-thaw lysates, T. thermophila B2086.2; type: in vitro ADME; conditions: freeze–thaw lysate of vegetative T. thermophila B2086.2 cells, 3 mg/mL total protein in PBS, no protease inhibitors, 10 μM reporter, 25 °C, CE-LIF, first-order fit, ± SD, 3 biological replicates
# Experimental: as §1, §2
# [3] = tested on: PHK5; type: cell-based; conditions: mating T. thermophila treated 20 s with 1 μM stimulus (2% for proteose peptone) prior to lysis; 15 min incubation of Crosstide in lysate; n = 2–3 biological replicates
# Experimental: For T. thermophila lysates, mating was induced by mixing equal cell numbers of B2086.2 and CU428.2 strains that had been starved for 16 h at 30 °C in unshaken Dryl’s buffer (2 mM phosphate buffer, 2 mM citrate, 1.5 mM CaCl2). […] Samples were then lysed with an equal volume of ice-cold 2× lysis buffer, before and 30 s after addition of 20% proteose peptone stock to a final concentration of 2% or other stimuli as noted.
# The protein concentrations of lysates were determined using the fluorescamine assay described above, and lysates were diluted to the same final concentration (0.4–0.6 mg/mL) in 1× lysis buffer. […] Phosphorylation reactions were conducted in kinase buffer (25 mM MOPS, pH 7.4, 20 mM magnesium chloride, 25 mM glycerophosphate, 1 mM DTT).[41] The peptide substrate reporter was added to a final concentration of 5 μM, and the reaction was started by addition of a final concentration of 2 mM ATP. The reaction was run at room temperature and stopped by the addition of CE run buffer. Negative control experiments were performed by substituting deionized water for ATP or denaturing the lysate with heat before the addition of peptide.
# Samples were analyzed using micellar electrokinetic chromatography (MEKC) in a PA-800 Plus capillary electrophoresis instrument (Beckman Coulter). […] The same buffer was used for phosphorylation assays of Crosstide. […] For all VI–B assays, the run buffer was 100 mM borate, 15 mM SDS, pH 11.4. The capillary was 50 μm diameter bare silica, 21 cm effective length with an applied potential of 400 V/cm. […] Peak integration was performed using 32 Karat (v. 10.1) software.
# Cells were treated with a final concentration of 1 μM stimulus for 20 s prior to lysis.
# [4] = tested on: PKBA; assay: Phosphorylation of peptide substrate reporters in D. discoideum lysates (CE-LIF); type: biochemical; conditions: lysates from chemotaxis-competent D. discoideum 20–30 s after 1 μM cAMP stimulation; 5 μM reporter, 2 mM ATP, 0.4–0.6 mg/mL protein, room temperature, lysis buffer with phosphatase and protease inhibitors; reactions with ≤10% total phosphorylation; MEKC CE-LIF
# Description: (§3) In addition to confirming that all three reporters were phosphorylated in lysates from both cell types, we also characterized the kinetics of the phosphorylation, which varied substantially between organisms. Using reactions with ≤10% total phosphorylation, we determined the phosphorylation rate for lysates from stimulated cells in units of zeptomoles of phosphorylated product per picogram of total protein per second (zmol pg^–1 s^–1; Table 2). […] For D. discoideum, B-5/I was the next most preferred substrate. This kinetic trend is similar to that observed in human cells. Crosstide and a truncated version of B-5/I have similar values for Vmax with human Akt1, but the KM value is about 5-fold lower for Crosstide.[25] The value of Vmax has not been determined for VI–B with Akt1, but its phosphorylation rate is known to be slower than that of B-5/I.[13]
# [5] = tested on: PHK5; assay: Phosphorylation of peptide substrate reporters in T. thermophila lysates (CE-LIF); type: biochemical; conditions: lysates from T. thermophila 2 h into conjugation, 20–30 s after 2% proteose peptone; 5 μM reporter, 2 mM ATP, room temperature, lysis buffer with phosphatase and protease inhibitors; reactions with ≤10% total phosphorylation; MEKC CE-LIF
# Experimental: For T. thermophila lysates, mating was induced by mixing equal cell numbers of B2086.2 and CU428.2 strains that had been starved for 16 h at 30 °C in unshaken Dryl’s buffer (2 mM phosphate buffer, 2 mM citrate, 1.5 mM CaCl2). Two hours after cells were mixed, microscopy was used to confirm that >75% of cells were paired. Samples were then lysed with an equal volume of ice-cold 2× lysis buffer, before and 30 s after addition of 20% proteose peptone stock to a final concentration of 2% or other stimuli as noted.
# as §3
# [6] = Degradation assay in freeze-thaw lysates, T. thermophila CU428.2; type: in vitro ADME; conditions: T. thermophila strain CU428.2 freeze–thaw lysate, based on the first 5 min of each reaction; 3 mg/mL protein, 10 μM reporter, 25 °C, CE-LIF
# Experimental: as §1
# To study degradation kinetics, we fit the data for each full-length peptide to a first-order reaction model and determined the half-life for each peptide for three biological replicates (Figure 5b-d, Table 3). […]
# [7] = tested on: intact human prostate cancer cells (LNCaP); conditions: cited from earlier work
# Experimental: (§4) These rates are much higher than rates obtained in intact human prostate cancer cells (LNCaP, 0.04 zmol pg^–1 s^–1)[6] and pancreatic cancer cell lines (0.02–0.1 zmol pg^–1 s^–1)[28],[50] with the same reporter. Our assays were conducted in lysates containing phosphatase inhibitors, which will increase the apparent activity of PKB by removing the effects of any opposing phosphatases. Additionally, higher phosphorylation rates may arise from differing expression levels of PKB ...
# [8] = tested on: pancreatic cancer cell lines; conditions: intact pancreatic cancer cell lines; cited from earlier work
# Experimental: as §4
# [9] = tested on: PKBA; assay: Effect of LY294002 treatment on reporter phosphorylation in cAMP-stimulated D. discoideum; type: cell-based; conditions: 15 μM LY294002 for 1 min before cAMP stimulation; lysed 15 s after stimulation; 1 h social development; all three reporters; n = 3 biological replicates
# Experimental: (§5) Next, we tested pharmacological treatment of D. discoideum. We treated cells for 1 min with 15 μM LY294002, a PI3K inhibitor. LY294002 has been shown previously to reduce PKBA activity in D. discoideum.[53],[55]−[57] […] The magnitude of this effect was quite similar for all three peptides; percent phosphorylation of cAMP-stimulated cells decreased to 33–34% of the untreated phosphorylation levels upon LY294002 treatment.
# [10] = tested on: PKBA; conditions: read-out: EC50 for PKBA in D. discoideum; cited from earlier work
# Experimental: as §5
# [11] = freeze–thaw lysate of vegetative D. discoideum cells, 3 mg/mL total protein in PBS, no protease inhibitors, first-order fit, ± SD, 3 biological replicates
molecule,measurement,setting,value
C[C@H](NC(=O)[C@H](Cc1ccccc1)NC(=O)[C@H](CO)NC(=O)[C@H](CO)NC(=O)[C@@H](NC(=O)[C@H](CCCNC(=N)N)NC(=O)[C@@H]1CCCN1C(=O)[C@H](CCCNC(=N)N)NC(=O)CNC(=O)c1ccc2c(c1)C(=O)OC21c2ccc(O)cc2Oc2cc(O)ccc21)[C@@H](C)O)C(=O)N[C@@H](CCC(=O)O)C(=O)NCC(=O)O [Crosstide] (5FAM-GRPRTSSFAEG-OH),half-life at 10 μM,[1]; [11],117 ± 10 min
same,half-life at 10 μM,[2],8 ± 1 min
NCCc1c[nH]c2ccc(O)cc12 [serotonin],change in phosphorylation activity toward Crosstide after stimulus,[3],None of these stimuli resulted in increased phosphorylation activity
Nc1nc2c(ncn2[C@@H]2O[C@@H]3COP(=O)(O)O[C@H]3[C@H]2O)c(=O)[nH]1 [cGMP],change in phosphorylation activity toward Crosstide after stimulus,[3],None of these stimuli resulted in increased phosphorylation activity
NCCc1c[nH]cn1 [histamine],change in phosphorylation activity toward Crosstide after stimulus,[3],None of these stimuli resulted in increased phosphorylation activity
C[C@H](NC(=O)[C@H](C)NC(=O)[C@H](CCCNC(=N)N)NC(=O)[C@@H]1CCCN1C(=O)[C@H](CCCNC(=N)N)NC(=O)CNC(=O)c1ccc2c(c1)C1(OC2=O)c2ccc(O)cc2Oc2cc(O)ccc21)C(=O)N[C@H](C(=O)N[C@@H](Cc1ccccc1)C(=O)N[C@@H](C)C(=O)N[C@@H](CCC(=O)O)C(=O)NCC(N)=O)[C@@H](C)O [B-5/I] (6FAM-GRPRAATFAEG-NH2),half-life at 10 μM,[1]; [11],51 ± 4 min
same,half-life at 10 μM,[2],12 ± 4 min
C[C@H](NC(=O)[C@H](CCCNC(=N)N)N(C)C(=O)[C@@H]1CCCN1C(=O)[C@H](CCCNC(=N)N)NC(=O)CNC(=O)c1ccc2c(c1)C1(OC2=O)c2ccc(O)cc2Oc2cc(O)ccc21)C(=O)N[C@@H](Cc1ccccc1)C(=O)N[C@H](C(=O)N[C@@H](Cc1ccccc1)C(=O)N(C)[C@@H](C)C(N)=O)[C@@H](C)O [VI–B] (6FAM-GRP[NMeR]AFTF[NMeA]-NH2),phosphorylation rate,[4],1.4 ± 0.2 zmol pg^–1 s^–1
same,phosphorylation rate,[5],4.1 ± 0.9 zmol pg^–1 s^–1
same,initial rate of fragmentation in lysates,"[1]; D. discoideum freeze–thaw lysate, based on the first 15 min of each reaction, pmol peptide per mg total protein per second, 3 mg/mL protein",0.3 ± 0.1 pmol mg^–1 s^–1
same,half-life,"[1]; cells or culture medium, freeze–thaw lysate of vegetative D. discoideum cells, 3 mg/mL total protein in PBS, no protease inhibitors, first-order fit, ± SD, 3 biological replicates",184 ± 65 min
same,half-life,[2]; cells or culture medium,22 ± 4 min
same,initial degradation rate in lysates,[6],5.1 ± 0.3 pmol mg^–1 s^–1
same,phosphorylation rate,[7],0.04 zmol pg^–1 s^–1
same,phosphorylation rate,[8],0.02–0.1 zmol pg^–1 s^–1
insulin,change in phosphorylation activity toward Crosstide after stimulus,[3],None of these stimuli resulted in increased phosphorylation activity
O=c1cc(N2CCOCC2)oc2c(-c3ccccc3)cccc12 [LY294002],"percent phosphorylation of cAMP-stimulated cells, as % of the untreated phosphorylation levels",[9],33–34%
same,EC50,[10],15 µM
concavalin A,change in phosphorylation activity toward Crosstide after stimulus,[3],None of these stimuli resulted in increased phosphorylation activity
